Read-outs that look alike come from different tables or passages of the source. No end group written: not given here.
How the values were obtained:
C. albicans [1] = test: Resistance induction by continuous passaging culture; assay type: cell-based, Candida albicans; conditions: for change of MIC on continuous passaging: SD broth, 24 h per generation, 28 °C
Description: The resistance tendency of c_AFPs developed in C. albicans was assessed utilizing a continuous passaging culture.^[ [23], [51] ^] […] Subsequently, 20 µL of culture was transferred to a fresh SD broth with the same concentration of c_AFPs/antibiotic. The concentrations of c_AFPs/antibiotic in the SD broth were doubled every 10 generations, and the MICs of the c_AFPs/antibiotic were detected every 5 generations. Each 24‐hour incubation was considered one generation. PBS (pH 6.0) was used as a blank control, and fluconazole was used as an antibiotic control. Each experiment was performed three times.

C. albicans [2] = conditions: 0.12 mg kg^−1 intraperitoneally
Description: The systemic C. albicans infection mouse model was established following the reported reference.^[ [22] ^] Cyclophosphamide (150 mg kg^−1 d^−1) was first injected intraperitoneally for 3 days to disrupt the immunity of female Kunming mice (Experimental Animal Center of Zhengzhou University, SCXK Yu 2021–0009). […] The injections were given once every 24 h during the first week and once every 48 h during the second week. Survival rates and body weights of the mice in each group were recorded during treatment. At 0, 7, and 14 d of treatment, duplicate samples (n = 3) of the spleen and thymus were collected from each group to determine the immune organ index.^[ [54] ^] The ratio of organ weight to body weight was adopted to describe the immune organ index. At 14 d of treatment, liver, lung, kidney, and spleen tissues were collected from each group of mice and immersed in 4% paraformaldehyde fixative. Subsequently, the tissue samples were embedded in paraffin, followed by sectioned and stained with hematoxylin‐eosin (H&E). Finally, optical microscopy was used to observe the pathological changes in the organ tissues of the mice.

[3] = tested on: fluconazole‐resistant C. albicans; conditions: 1 × 10^6 CFU mL^−1, 28 °C, 12 h, then plated on SD agar 37 °C, 16 h
Description: Fluconazole‐resistant C. albicans was prepared following the established methods.^[ [23], [51], [52] ^]

[4] = tested on: human red blood cells (HRBCs); conditions: for MHC5, minimal hemolytic concentration that results in 5% human erythrocyte hemolysis: 2% fresh human red blood cells in saline, 37 °C, 30 min, absorbance 540 nm, mean ± SD, n = 3; for TI, therapeutic index against C. albicans: TI = MHC5/MIC100 (C. albicans)
Description: A 2% fresh human red blood cells (HRBCs) suspension was used in the hemolysis assay of c_AFPs.^[ [48], [50] ^] The c_AFPs solution was prepared in saline with a concentration range of 0–0.5 mg mL^−1. Then, 2% HRBCs suspension was incubated with different concentrations of c_AFPs in a 96‐well plate (37 °C, 30 min). […] Saline was used as a negative control, and Triton X‐100 (1%) was used as a positive control. Each experiment was replicated three times.

[5] = Day 7, fluconazole group, n = 3

Compound	change of MIC on continuous passaging (C. albicans [1]; 25th generation)	change of MIC on continuous passaging (C. albicans [1]; 40th generation)	MIC (C. albicans [1]; Candida albicans, read-out: MIC of fluconazole against C. albicans)	change of MIC on continuous passaging (C. albicans [1]; first 20 generations, 0.5 × MIC doubled every 10 generations)	splenic index (C. albicans [2]; [5])	thymic index (C. albicans [2]; [5])	thymic index (C. albicans [2]; Day 14, fluconazole group, n = 3)	average increased weight after 14 days of treatment (C. albicans [2]; fluconazole group, n = 10)	minimum fungicidal concentration (MFC) against fluconazole‐resistant C. albicans [3]	MHC5, minimal hemolytic concentration that results in 5% human erythrocyte hemolysis [4]	TI, therapeutic index against C. albicans [4]
OC(Cn1cncn1)(Cn1cncn1)c1ccc(F)cc1F [fluconazole]	increased twofold	eightfold	1.9 µg/mL	remained unchanged	9.89 mg/g	2.45 mg/g	5.16 mg/g	8.16 g	> 50 × MIC		
RLWRIVLIRKAR-NH2 [AFP‐11]									8 × MIC	46.51 ± 2.24 µg/mL	6.22
RLWRIVLIRRAK-NH2 [AFP‐10]									2 × MIC	48.11 ± 1.54 µg/mL	13.71
RLWRIVVIRRAR-NH2 [AFP‐8]									4 × MIC	41.81 ± 1.88 µg/mL	5.45
VRWRIRLIRKLA-NH2 [AFP‐13]									2 × MIC	99.50 ± 3.28 µg/mL	15.89

Reference: publication PMC11967820, “Deep Learning Combined with Quantitative Structure‒Activity Relationship Accelerates De Novo Design of Antifungal Peptides” (Advanced Science, 2025)
